According to ChEMBL document CHEMBL5046286, “Discovery of MAP855, an Efficacious and Selective MEK1/2 Inhibitor with an ATP-Competitive Mode of Action” (J Med Chem, 2022):
Values after ≈ are worked out from the molar mass of the structure shown. Active and inactive are the calls of the source. The rule behind the calls is not given here.

Assays:
Mus musculus [1] = assay: In vivo inhibition of SPRY4 in human A-375 cells xenografted CD1 mouse at 30 mg/kg bid via oral gavage measured after 8 hrs by RT-PCR method; format: functional, organism-based
[2] = Inhibition of ERK phosphorylation in human A-375 cells incubated for 3 hrs by DELFIA assay; format: cell-based; settings: A-375, 3 h
[3] = test system: Serine/threonine-protein kinase B-raf (Homo sapiens), P15056 [V600E]; assay: Inhibition of full length human BRAF V599E mutant using LCB-FFKNIVTPRTPPP as substrate preincubated for 45 mins followed by substrate addition and measured after 90 mins; settings: time 135.0 min
Sequence of Serine/threonine-protein kinase B-raf (Homo sapiens), P15056 [V600E] (P15056 whole entry V600E): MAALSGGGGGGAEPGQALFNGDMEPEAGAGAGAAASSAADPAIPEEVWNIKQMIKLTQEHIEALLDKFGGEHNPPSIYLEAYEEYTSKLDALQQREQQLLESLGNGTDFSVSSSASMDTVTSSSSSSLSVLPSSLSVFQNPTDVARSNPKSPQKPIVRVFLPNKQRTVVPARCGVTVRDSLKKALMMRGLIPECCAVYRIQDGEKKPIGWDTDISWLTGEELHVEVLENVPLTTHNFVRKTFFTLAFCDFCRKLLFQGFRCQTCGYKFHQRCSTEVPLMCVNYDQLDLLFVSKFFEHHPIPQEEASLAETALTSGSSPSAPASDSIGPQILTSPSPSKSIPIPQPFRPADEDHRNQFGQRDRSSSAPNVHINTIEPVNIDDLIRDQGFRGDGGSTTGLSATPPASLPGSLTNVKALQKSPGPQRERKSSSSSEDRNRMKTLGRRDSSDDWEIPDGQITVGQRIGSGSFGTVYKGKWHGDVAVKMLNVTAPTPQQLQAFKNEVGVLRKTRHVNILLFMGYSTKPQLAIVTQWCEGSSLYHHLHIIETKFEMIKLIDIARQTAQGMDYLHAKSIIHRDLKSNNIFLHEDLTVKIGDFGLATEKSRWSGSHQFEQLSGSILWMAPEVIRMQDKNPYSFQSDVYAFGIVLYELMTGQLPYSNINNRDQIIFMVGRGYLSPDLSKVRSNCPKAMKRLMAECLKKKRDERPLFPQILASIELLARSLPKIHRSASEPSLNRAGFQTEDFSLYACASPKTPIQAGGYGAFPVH

[4] = target: Mitogen-activated protein kinase 1 (Homo sapiens) (UniProt P28482); assay: Inhibition of full length human ERK2 using LCB-FFKNIVTPRTPPP as substrate preincubated for 45 mins followed by substrate addition and measured after 90 mins; settings: time 135.0 min
Sequence of Mitogen-activated protein kinase 1 (Homo sapiens) (P28482 whole entry): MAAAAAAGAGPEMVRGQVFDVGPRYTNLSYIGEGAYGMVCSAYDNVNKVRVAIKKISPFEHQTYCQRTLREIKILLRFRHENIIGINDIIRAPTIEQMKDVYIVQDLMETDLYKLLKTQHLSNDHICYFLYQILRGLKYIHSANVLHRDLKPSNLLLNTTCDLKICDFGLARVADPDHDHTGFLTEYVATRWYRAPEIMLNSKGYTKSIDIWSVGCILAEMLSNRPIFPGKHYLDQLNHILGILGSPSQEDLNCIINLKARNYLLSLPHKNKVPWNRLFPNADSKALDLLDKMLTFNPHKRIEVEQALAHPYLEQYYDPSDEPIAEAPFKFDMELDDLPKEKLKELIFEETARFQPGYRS

[5] = AUC in CD1 mouse at 10 mg/kg, po measured up to 24 hrs by LC-MS/MS analysis; format: ADME, organism-based; parameters: route oral, dose 10 mg/kg, time <=24; settings: in vivo
[6] = Oral bioavailability in Wistar rat at 10 mg/kg measured up to 24 hrs by LC-MS/MS analysis; format: ADME, organism-based; settings: in vivo; for bioavailability: Wistar
Cytochrome P450 3A4 = Cytochrome P450 3A4 (Homo sapiens, UniProt P08684); assay: Inhibition of CYP3A4 (unknown origin); format: ADME
Sequence of Cytochrome P450 3A4 (P08684 whole entry): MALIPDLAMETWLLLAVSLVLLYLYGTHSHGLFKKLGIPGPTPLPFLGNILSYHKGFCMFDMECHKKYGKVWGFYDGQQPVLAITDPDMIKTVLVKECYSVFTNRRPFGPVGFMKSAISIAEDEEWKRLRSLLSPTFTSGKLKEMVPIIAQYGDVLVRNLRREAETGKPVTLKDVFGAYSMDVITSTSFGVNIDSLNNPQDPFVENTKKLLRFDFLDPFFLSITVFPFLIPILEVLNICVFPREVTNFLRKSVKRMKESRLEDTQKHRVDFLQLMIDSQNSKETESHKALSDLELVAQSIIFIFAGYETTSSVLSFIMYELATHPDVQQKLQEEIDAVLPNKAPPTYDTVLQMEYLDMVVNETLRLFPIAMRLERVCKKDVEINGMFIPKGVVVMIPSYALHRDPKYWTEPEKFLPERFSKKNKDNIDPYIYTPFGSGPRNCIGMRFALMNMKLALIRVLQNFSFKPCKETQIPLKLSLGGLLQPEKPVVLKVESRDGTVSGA

[7] = target: T1, Dual specificity mitogen-activated protein kinase kinase 1 (Homo sapiens, UniProt Q02750); settings: time 120.0 min
T1 sequence (Q02750 whole entry): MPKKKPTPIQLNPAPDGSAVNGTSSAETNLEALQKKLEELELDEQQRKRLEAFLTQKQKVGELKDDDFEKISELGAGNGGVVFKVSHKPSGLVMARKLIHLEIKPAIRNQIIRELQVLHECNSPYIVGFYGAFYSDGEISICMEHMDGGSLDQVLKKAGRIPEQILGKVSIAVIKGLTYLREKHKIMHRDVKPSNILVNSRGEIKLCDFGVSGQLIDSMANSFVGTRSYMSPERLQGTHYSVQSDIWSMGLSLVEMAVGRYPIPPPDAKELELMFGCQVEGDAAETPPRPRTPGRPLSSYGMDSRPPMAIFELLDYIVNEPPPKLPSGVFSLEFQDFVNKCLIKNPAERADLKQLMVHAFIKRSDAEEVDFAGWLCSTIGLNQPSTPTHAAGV

Mus musculus [8] = assay: In vivo inhibition of MEK phosphorylation in human A-375 cells xenografted CD1 mouse at 30 mg/kg bid via oral gavage measured after 8 hrs by ELISA method; format: functional, organism-based
[9] = Volume of distribution at steady state in CD1 mouse at 3 mg/kg, iv measured up to 24 hrs by LC-MS/MS analysis; format: ADME, organism-based; settings: in vivo, read-out: Vdss
[10] = Toxicity in CD1 mouse xenografted with human A-375 cells assessed as body weight loss at 30 mg/kg bid via oral gavage; format: organism-based; settings: in vivo
[11] = Volume of distribution at steady state in Beagle dog at 3 mg/kg, iv measured up to 24 hrs by LC-MS/MS analysis; format: ADME, organism-based, Canis lupus familiaris; settings: in vivo, read-out: Vdss
[12] = Oral bioavailability in CD1 mouse at 10 mg/kg measured up to 24 hrs by LC-MS/MS analysis; format: ADME, organism-based; settings: in vivo
[13] = AUC in Beagle dog at 10 mg/kg, po measured up to 24 hrs by LC-MS/MS analysis; format: ADME, organism-based, Canis lupus familiaris; parameters: route oral, dose 10 mg/kg, time <=24; settings: in vivo
[14] = AUC in Wistar rat at 10 mg/kg, po measured up to 24 hrs by LC-MS/MS analysis; format: ADME, organism-based; parameters: route oral, dose 10 mg/kg, time <=24; settings: in vivo
[15] = target: High affinity nerve growth factor receptor (Homo sapiens, UniProt P04629); assay: Inhibition of wild-type human partial length TRKA (G475 to G790 residues) expressed in mammalian expression system by Kinomescan method
Sequence of High affinity nerve growth factor receptor (P04629 whole entry, the tested form may be a part): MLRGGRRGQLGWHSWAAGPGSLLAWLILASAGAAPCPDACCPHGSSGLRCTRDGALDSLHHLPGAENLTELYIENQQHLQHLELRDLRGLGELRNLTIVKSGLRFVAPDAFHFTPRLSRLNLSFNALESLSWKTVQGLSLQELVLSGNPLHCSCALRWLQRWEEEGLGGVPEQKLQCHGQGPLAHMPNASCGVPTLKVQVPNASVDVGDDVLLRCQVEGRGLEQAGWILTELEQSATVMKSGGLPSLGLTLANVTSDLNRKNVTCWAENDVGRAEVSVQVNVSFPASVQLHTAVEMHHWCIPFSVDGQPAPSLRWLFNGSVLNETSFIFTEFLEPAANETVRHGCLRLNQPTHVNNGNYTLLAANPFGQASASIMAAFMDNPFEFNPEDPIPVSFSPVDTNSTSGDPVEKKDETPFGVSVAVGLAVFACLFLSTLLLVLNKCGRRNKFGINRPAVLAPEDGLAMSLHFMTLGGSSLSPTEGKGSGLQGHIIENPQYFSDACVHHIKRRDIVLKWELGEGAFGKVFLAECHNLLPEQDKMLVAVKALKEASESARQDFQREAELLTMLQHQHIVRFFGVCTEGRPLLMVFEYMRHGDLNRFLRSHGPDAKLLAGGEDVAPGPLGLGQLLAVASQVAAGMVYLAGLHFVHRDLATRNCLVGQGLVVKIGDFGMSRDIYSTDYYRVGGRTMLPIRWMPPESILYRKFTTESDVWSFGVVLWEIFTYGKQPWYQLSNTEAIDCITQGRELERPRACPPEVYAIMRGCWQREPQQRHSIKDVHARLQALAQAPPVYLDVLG

Mus musculus [16] = assay: In vivo inhibition of ERK phosphorylation in human A-375 cells xenografted CD1 mouse at 30 mg/kg bid via oral gavage measured after 8 hrs by ELISA method; format: functional, organism-based
Mus musculus [17] = assay: In vivo inhibition of DUSP6 in human A-375 cells xenografted CD1 mouse at 30 mg/kg bid via oral gavage measured after 8 hrs by RT-PCR method; format: functional, organism-based
[18] = Volume of distribution at steady state in Wistar rat at 3 mg/kg, iv measured up to 24 hrs by LC-MS/MS analysis; format: ADME, organism-based; settings: in vivo, read-out: Vdss
[19] = Octanol-water partition coefficient, logP of the compound by LC-MS analysis; format: physicochemical
[20] = Oral bioavailability in Beagle dog at 10 mg/kg measured up to 24 hrs by LC-MS/MS analysis; format: ADME, organism-based, Canis lupus familiaris; settings: in vivo
[21] = Solubility of compound in FaSSIF at pH 6.8 by shake flask method based HPLC/UV analysis; format: physicochemical
[22] = Permeability in PBS at pH 6.8 incubated for 5 hrs by PAMPA method; format: ADME; settings: pH 6.8, 5 h
[23] = Solubility of compound in water at pH 6.8 by shake flask method based HPLC/UV analysis; format: physicochemical
[24] = Clearance in Wistar rat at 3 mg/kg, iv measured up to 24 hrs by LC-MS/MS analysis; format: ADME, organism-based; settings: in vivo
[25] = Dissociation constant, pKa of compound; format: physicochemical
[26] = Clearence in CD-1 mouse at 3 mg/kg, iv; format: ADME, organism-based; settings: in vivo
[27] = target: T1, Dual specificity mitogen-activated protein kinase kinase 1; assay: Inhibition of full-length human MEK1 by TR-FRET assay
[28] = Protein binding in human plasma assessed as free fraction; format: ADME, cell-free
A-375 = assay: Antitumor activity against human A-375 cells xenografted in CD1 mouse assessed as tumor growth inhibition at 30 mg/kg bid via oral gavage; format: functional; settings: A-375, po, read-out: TGI

| Compound | IC50 (Cytochrome P450 3A4) [nM] | logP [19] | solubility thermodynamic [21] [µM] | log(permeability) [22] | solubility thermodynamic [23] [µM] | further results |
| --- | --- | --- | --- | --- | --- | --- |
| Cc1nc2cnc3cc(F)c(-c4ccc(Oc5ncccn5)cc4Cl)cc3c2n1[C@H]1CCN(C(=O)CO)C[C@@H]1F | 7700 | 1.6 | – | – | – | Activity (Mus musculus [1]): Active; EC50 [2]: 5000 nM; inhibition [3]: inactive; inhibition [4]: inactive; AUC [5]: 0.4 µM·h; F ([6]; 10 mg/kg, 24 h): 65%; T1/2 [7]: 1.62 h; Activity (Mus musculus [8]): Active; Vd [9]: 2.6 L/kg; Activity [10]: Non-Toxic; Vd [11]: 1.8 L/kg; F [12]: 44%; AUC [13]: 1.4 µM·h; AUC [14]: 0.6 µM·h; IC50 [15]: 25 nM; Activity (Mus musculus [16]): Active; Activity (Mus musculus [17]): Active; Vd [18]: 2 L/kg; F [20]: 100% |
| Cc1cc(Oc2ncccn2)ccc1-c1cc2c(cc1F)ncc1nc(C)n([C@H]3CCN(C(=O)CO)C[C@@H]3F)c12 | > 20000 | 2 | – | – | – | EC50 [2]: 19000 nM |
| CC(=O)N1CC[C@H](n2c(C)nc3cnc4cc(F)c(-c5ccc(Oc6ncccn6)cc5Cl)cc4c32)[C@@H](F)C1 | – | – | – | – | – | EC50 [2]: 64000 nM |
| CC(=O)Nc1cccc(-n2c(=O)n(C3CC3)c(=O)c3c(Nc4ccc(I)cc4F)n(C)c(=O)c(C)c32)c1 | – | – | – | – | – | T1/2 [7]: 0.417 h |
| COCC(=O)N1CC[C@H](n2c(C)nc3cnc4cc(F)c(-c5ccc(Oc6ncccn6)cc5Cl)cc4c32)[C@@H](F)C1 | 5000 | 3.2 | – | – | – | – |
| CC(O)c1nc2cnc3cc(F)c(-c4ccc(Oc5ncccn5)cc4Cl)cc3c2n1C1CCN(CC#N)CC1 (stereo not drawn) | – | – | 22 (≈ 12.3 µg/mL) | -4.7 | < 4 | – |
| COc1cc(Oc2ncccn2)ccc1-c1cc2c(cc1F)ncc1nc(C(C)O)n(C3CCN(CC#N)CC3)c12 (stereo not drawn) | – | 3.2 | 42 (≈ 23.3 µg/mL) | -6.9 | 31 (≈ 17.2 µg/mL) | – |
| Cc1nc2cnc3cc(F)c(-c4ccc(Oc5ncccn5)cc4Cl)cc3c2n1C1CCN(CC#N)CC1 | 1600 | 3.3 | 106 (≈ 56 µg/mL) | -4.7 | 11 (≈ 5.81 µg/mL) | IC50 [2]: 60 nM; bioavailability [6]: 0%; clearance [24]: 16 mL/min/kg |
| N#CCN1CCC(n2c(CO)nc3cnc4cc(F)c(-c5ccc(Oc6ccccn6)cc5Cl)cc4c32)CC1 | – | 4.9 | < 4 | -4.5 | < 4 | – |
| N#CCN1CCC(n2c(CO)nc3cnc4cc(F)c(-c5ccc(Oc6ncccn6)cc5Cl)cc4c32)CC1 | – | 3.5 | 6 (≈ 3.26 µg/mL) | -5.3 | 12 (≈ 6.53 µg/mL) | – |
| Fc1cc2ncc3ncn(C4CCNCC4)c3c2cc1-c1ccc(Oc2ccccn2)cc1Cl | – | 4.8 | – | -4.5 | 47 (≈ 22.3 µg/mL) | pKa [25]: 8.4 |
| COc1cc(Oc2ccccn2)ccc1-c1cc2c(cc1F)ncc1nc(C(C)O)n(C3CCN(CC#N)CC3)c12 (stereo not drawn) | – | 4.4 | 9 (≈ 4.97 µg/mL) | -4.6 | < 4 | – |
| O=C(CO)N1CC[C@H](n2cnc3cnc4cc(F)c(-c5ccc(Oc6ncccn6)cc5Cl)cc4c32)[C@@H](F)C1 | > 20000 | 2.3 | – | – | – | – |
| N#CC[C@]1(N)CC[C@@H](n2cnc3cnc4cc(F)c(-c5ccc(Oc6ncccn6)cc5Cl)cc4c32)CC1 | 5700 | 5.7 | – | – | – | – |
| CC(O)c1nc2cnc3cc(F)c(-c4ccc(Oc5ccccn5)cc4Cl)cc3c2n1C1CCN(CC#N)CC1 (stereo not drawn) | – | – | 22 (≈ 12.3 µg/mL) | -4.7 | < 4 | – |
| COc1cc(Oc2ccccn2)ccc1-c1cc2c(cc1F)ncc1nc(C)n(C3CCN(CC#N)CC3)c12 | – | 4.6 | 22 (≈ 11.5 µg/mL) | -3.9 | < 4 | – |

| Compound | IC50 (Cytochrome P450 3A4) [nM] | logP [19] | solubility thermodynamic [21] [µM] | log(permeability) [22] | solubility thermodynamic [23] [µM] | further results |
| --- | --- | --- | --- | --- | --- | --- |
| N#CCN1CCC(n2cnc3cnc4cc(F)c(-c5ccc(Oc6ncccn6)cc5Cl)cc4c32)CC1 | – | 3 | – | -4.5 | – | – |
| Cc1nc2cnc3cc(F)c(-c4ccc(Oc5ncccn5)cc4Cl)cc3c2n1[C@H]1CC[C@@](N)(CC#N)CC1 | 1200 | 1.2 | – | – | – | – |
| CC1(n2cnc3cnc4cc(F)c(-c5ccc(Oc6ncccn6)cc5Cl)cc4c32)CCC(CC#N)CC1 (stereo not drawn) | < 500 | 4.6 | – | – | – | clearance [26]: 6 mL/min/kg |
| COc1cc(Oc2ccccn2)ccc1-c1cc2c(cc1F)ncc1ncn(C3CCN(CC#N)CC3)c12 | – | 5.3 | – | -4.2 | – | – |
| N#CCc1ccc(-n2cnc3cnc4cc(F)c(-c5ccc6[nH]ccc6c5)cc4c32)cc1 | – | – | – | – | – | EC50 [2]: 5800 nM; IC50 [27]: 2600 nM |
| Cc1nc2cnc3cc(F)c(-c4ccc(Oc5ncccn5)cc4Cl)cc3c2n1C1CCN(C(=O)CO)CC1 | 11000 | 2 | – | – | – | EC50 [2]: 50000 nM; fraction unbound [28]: 0.05; bioavailability [6]: 37%; clearance [24]: 34 mL/min/kg; inhibition in vivo at 30 mg/kg (A-375): 41% |
| N#CCc1ccc(-n2cnc3cnc4cc(F)c(-c5ccc(Oc6ccccn6)cc5Cl)cc4c32)cc1 | < 500 | – | – | – | – | EC50 [2]: 3000 nM; bioavailability [6]: 5%; clearance [24]: 8 mL/min/kg |
| COc1cc(Oc2ncccn2)ccc1-c1cc2c(cc1F)ncc1nc(C)n(C3CCN(CC#N)CC3)c12 | – | 2.3 | 221 (≈ 116 µg/mL) | -4.5 | 33 (≈ 17.3 µg/mL) | – |
| OCCN1CCC(n2cnc3cnc4cc(F)c(-c5ccc(Oc6ccccn6)cc5Cl)cc4c32)CC1 | – | 4.6 | – | -4.4 | 67 (≈ 34.7 µg/mL) | pKa [25]: 6.9 |
| N#CCN1CCC(n2cnc3cnc4cc(F)c(-c5ccc(Oc6ccccn6)cc5Cl)cc4c32)CC1 | – | 5.3 | – | -4.2 | – | EC50 [2]: 400 nM; IC50 [27]: 70 nM; pKa [25]: 4.1 |
| Cc1nc2cnc3cc(F)c(-c4ccc(Oc5ccccn5)cc4Cl)cc3c2n1C1CCN(CC#N)CC1 | – | 5.1 | 175 (≈ 92.2 µg/mL) | -4.1 | < 4 | – |
| CC1(n2cnc3cnc4cc(F)c(-c5ccc(Oc6ncccn6)cc5Cl)cc4c32)CCN(CC#N)CC1 | 1500 | 4.2 | – | – | – | IC50 [2]: 80 nM; clearance [26]: 35 mL/min/kg |
| COc1cc(Oc2ccccn2)ccc1-c1cc2c(cc1F)ncc1nc(CO)n(C3CCN(CC#N)CC3)c12 | – | 4.4 | 7 (≈ 3.77 µg/mL) | -5 | < 4 | – |
| N#CCN1CCN(n2cnc3cnc4cc(F)c(-c5ccc(Oc6ncccn6)cc5Cl)cc4c32)CC1 | – | 3.2 | – | – | – | IC50 [2]: 120 nM |
| Cc1ccnc(Oc2ccc(-c3cc4c(cc3F)ncc3nc(C)n([C@H]5CCN(C(=O)CO)C[C@@H]5F)c34)c(Cl)c2)n1 | 2000 | 2.6 | – | – | – | EC50 [2]: 7000 nM |
| Cc1nc2cnc3cc(F)c(-c4ccc(Oc5ncccn5)cc4Cl)cc3c2n1[C@H]1CC[C@](N)(CC#N)CC1 | 12100 | – | – | – | – | – |
